Series [1] relates to P. aeruginosa (ATCC 27853). The class given is cell-based. As to conditions: ATCC 27853. How it is done:
(§1) Minimum inhibitory concentrations (MICs) on relevant Gram-negative bacteria were determined by broth microdilution, in accordance with CLSI guidelines. Indicated bacteria were taken from glycerol stocks and incubated overnight on blood agar at 37 °C. Well-isolated colonies were taken, suspended in TSB (5 mL), and grown to an OD600 of 0.5. Compounds to be tested were dissolved in DMSO (6.4 mg/mL), diluted in cation-adjusted Mueller–Hinton Broth (CAMHB) (12.5 and 20 μg/mL Mg^2+ and Ca^2+, respectively), and diluted serially on polypropylene microtiter plates. To the diluted compounds (50 μL per well) was added 50 μL of relevant bacterial suspension, to yield a final concentration of 10^6 CFU/mL. Plates were covered by adhesive gas-permeable membranes and incubated at 37 °C. MIC was read out as the lowest concentration that inhibited visual bacterial growth. Shown values are consistent results from at least duplicate experiments.

Series [2] relates to K. pneumoniae (ATCC 13883). The class given is cell-based. As to conditions: ATCC 13883. How it is done: as §1
In series [3] the test system is A. baumannii (ATCC 19606). The class given is cell-based. As to conditions: ATCC 19606. How it is done:
as §1

The next series concerns E. coli (ATCC 25922). The class given is cell-based. As to conditions: ATCC 25922. How it is done: as §1
For series [4], the system named is differentiated conditionally immortalized PTECs (ciPTECs, OAT-1). In words: ciPTEC toxicity assay (PrestoBlue). The class given is cell-based, human. The method, then: ciPTECs (OAT-1) cells,[52],[53] grown to 90–100% confluence, were washed by Hanks’ balanced salt solution (HBSS; Gibco, Life Technologies, Paisley, U.K.) and detached by accutase (4 mL) for 5 min at 37 °C. The cells were then suspended in fresh medium (DMEM/F-12, supplemented with 10% fetal calf serum, insulin (5 μg/mL), transferrin (5 μg/mL), selenium (5 μg/mL) hydrocortisone (35 ng/mL), Epidermal Growth Factor (10 ng/mL) and tri-iodothyronine (40 pg/mL)). Cell density was adjusted to 2.0 × 10^5 cells/mL, of which 100 μL was added to each well of a 96-well plate. The cells were incubated for 24 h at 33 °C, followed by 6 days at 37 °C, in a humidified atmosphere containing 5% (v/v) CO2. The medium was refreshed every second or third day.
Compounds were dissolved and serially diluted in serum-free medium. Differentiated cells were washed once with HBSS and serially diluted compounds (80 μL/well) were transferred to the ciPTEC-containing plate. Compounds were incubated for 24 h at 37 °C; the cells were washed by HBSS, followed by incubation with 10% PrestoBlue cell viability reagent (Thermo Scientific, Vienna, Austria) in HBSS at 37 °C in the dark. Fluorescence was recorded (excitation: 530 nm, emission: 590 nm). Raw data are corrected for PrestoBlue background fluorescence and reported relative to the no-treatment control (cells with medium only). Viability data were fitted with GraphPad Prism software (version 5.03; GraphPad Software, La Jolla, CA), by nonlinear regression with 0 as bottom constraint. Presented data are based on triplicates.
Toxicity assessment on PTECs
Table S1. TC50 values for polymyxin analogues. Toxicity assessment on proximal tubular epithelial cells
performed using PrestoBlue™ assay. TC50 values are derived after non-linear regression analysis on cell viability
correspond to data obtained from 2 different batches of cells/analyses on different days. As the value for
polymyxin B differs 2-fold, values in the manuscript are presented relative to the polymyxin B value.
Compound TC50 (µ M) Compound TC50 (µ M)
Polymyxin B 80 Polymyxin B 41
Figure S3. Representative traces of ciPTECs’ viability after incubation with analogues for 24 hours. Shown data are based on […]

A further series deals with P. aeruginosa M120. The class given is cell-based. As to conditions: M120. How it is done: as §1
(§2) Bacterial strains used for MIC assays and extended MIC assessment
(§3) Strains: The following strains were obtained from BEI Resources, NIAID, NIH: E. Coli M0072, strain
(§4) Table S2. […] Values are given in μg/mL.
(§5) Species Strain ID Resistance Polymyxin B 18b 23a 24a

The subject of the next series is E. coli 1793. The class given is cell-based. As to conditions: 1793. How it is done: as §1, §2, §3, §4, §5
The subject of the next series is P. aeruginosa 2018-007. The class given is cell-based. As to conditions: 2018-007. How it is done: as §1, §2, §3, §4, §5
For another series, the system named is P. aeruginosa ATCC 10145. The class given is cell-based. As to conditions: ATCC 10145. The method, then:
as §1, §2, §3, §4, §5

A further series concerns A. baumannii RUH-134. The class given is cell-based. As to conditions: RUH-134. How it is done: as §1, §2, §3, §4, §5
A further series has as its system P. aeruginosa 2251. The class given is cell-based. As to conditions: 2251. The method, then:
as §1, §2, §3, §4, §5

In the next series the test system is K. pneumoniae RC0045. The class given is cell-based. As to conditions: RC0045. The method, then:
as §1, §2, §3, §4, §5

In another series the test system is K. pneumoniae ATCC 29665. The class given is cell-based. As to conditions: ATCC 29665. The method, then: as §1, §2, §3, §4, §5
Another series has as its system E. coli M0072. The class given is cell-based. As to conditions: M0072. How it is done: as §1, §2, §3, §4, §5
The test system of another series is E. coli JS136. The class given is cell-based. As to conditions: JS136. How it is done:
as §1, §2, §3, §4, §5

A further series relates to K. pneumoniae KP1.53. The class given is cell-based. As to conditions: KP1.53. How it is done: as §1, §2, §3, §4, §5
The test system of the next series is A. baumannii BAA-747. The class given is cell-based. As to conditions: BAA-747. How it is done: as §1, §2, §3, §4, §5
In another series the test system is A. baumannii NRZ-00687. The class given is cell-based. As to conditions: NRZ-00687. The method, then: as §1, §2, §3, §4, §5

Data on 3 compounds can be found in PMC9743094, “Synthesis and Evaluation of Polymyxins Bearing Reductively Labile Disulfide-Linked Lipids” (Journal of Medicinal Chemistry, 2022).

In brackets after ≈: the same amount, converted by molar mass. Positions of bridges follow the written chain, without caps; N, C: chain ends. Non-standard residues stand in square brackets, D forms with d. Residues, ends and D or L forms follow the SMILES beside them. *: point of attachment. S(2-cyclohexylethyl) = C1CCC(CCS*)CC1; Dab = NCC[C@H](N)C(=O)O; X1 = CC(C)CCCCS*

With `CC(C)CCCCSSC[C@@H](N)C(=O)N[C@H](C(=O)N[C@@H](CCN)C(=O)N[C@H]1CCNC(=O)[C@H]([C@@H](C)O)NC(=O)[C@H](CCN)NC(=O)[C@H](CCN)NC(=O)[C@H](CC(C)C)NC(=O)[C@@H](Cc2ccccc2)NC(=O)[C@H](CCN)NC1=O)[C@@H](C)O` [Compound 20b] (H-[dC](X1)T[Dab][Dab][Dab][dF]L[Dab][Dab]T; lactam 4-C), the “MIC P. aeruginosa (ATCC 27853)” value in series [1] was 16 µg/mL (≈ 13.4 µM). For the same compound, the “MIC K. pneumoniae (ATCC 13883)” value in [2] was 2 µg/mL (≈ 1.67 µM). Moreover, the “MIC A. baumannii (ATCC 19606)” value in series [3] is 2 µg/mL (≈ 1.67 µM). Moreover, the “MIC E. coli (ATCC 25922)” value in the series on E. coli (ATCC 25922) was 4 µg/mL (≈ 3.34 µM). In series [4], the “TC50, Day 2” value is 135 µM and the “ciPTEC Toxicity Index (relative to polymyxin B)” value is on record as 3.3.

Turning to `CC(C)C[C@@H]1NC(=O)[C@@H](Cc2ccccc2)NC(=O)[C@H](CCN)NC(=O)[C@@H](NC(=O)[C@H](CCN)NC(=O)[C@@H](NC(=O)[C@H](CSSCCC2CCCCC2)NC(=O)CN)[C@@H](C)O)CCNC(=O)[C@H]([C@@H](C)O)NC(=O)[C@H](CCN)NC(=O)[C@H](CCN)NC1=O` [Compound 23a] (H-GC(S(2-cyclohexylethyl))T[Dab][Dab][Dab][dF]L[Dab][Dab]T; lactam 5-C), in series [1], the “MIC P. aeruginosa (ATCC 27853)” value is 1 µg/mL (≈ 0.79 µM). The “MIC K. pneumoniae (ATCC 13883)” value in series [2] was 1 µg/mL (≈ 0.79 µM). Further, the “MIC A. baumannii (ATCC 19606)” value in [3] amounted to 1 µg/mL (≈ 0.79 µM). The “MIC E. coli (ATCC 25922)” value against E. coli (ATCC 25922) was 1 µg/mL (≈ 0.79 µM). In addition, in [4], the “TC50, Day 2” value is 391 µM and the “ciPTEC Toxicity Index (relative to polymyxin B)” value was 9.5. The “MIC P. aeruginosa M120” value against P. aeruginosa M120 worked out at 2 µg/mL (≈ 1.58 µM). For the same compound, the “MIC E. coli 1793” value with E. coli 1793 stood at 0.5 µg/mL (≈ 0.395 µM). The “MIC P. aeruginosa 2018-007” value against P. aeruginosa 2018-007 is 8 µg/mL (≈ 6.32 µM). The “MIC P. aeruginosa ATCC 10145” value in the series on P. aeruginosa ATCC 10145 was found to be 2 µg/mL (≈ 1.58 µM). The “MIC A. baumannii RUH-134” value in the series on A. baumannii RUH-134 was 1 µg/mL (≈ 0.79 µM). Also, the “MIC P. aeruginosa 2251” value in the series on P. aeruginosa 2251 was 2 µg/mL (≈ 1.58 µM). Further, the “MIC K. pneumoniae RC0045” value with K. pneumoniae RC0045 turned out to be 1 µg/mL (≈ 0.79 µM). Moreover, the “MIC K. pneumoniae ATCC 29665” value in the series on K. pneumoniae ATCC 29665 is 1 µg/mL (≈ 0.79 µM). For the same compound, the “MIC E. coli M0072” value in the series with E. coli M0072 came to 0.5 µg/mL (≈ 0.395 µM). Moreover, the “MIC E. coli JS136” value with E. coli JS136 was 0.5 µg/mL (≈ 0.395 µM). The “MIC K. pneumoniae KP1.53” value against K. pneumoniae KP1.53 came to 2 µg/mL (≈ 1.58 µM). Also, in the series with A. baumannii BAA-747, the “MIC A. baumannii BAA-747” value stood at 1 µg/mL (≈ 0.79 µM). Besides, the “MIC A. baumannii NRZ-00687” value against A. baumannii NRZ-00687 amounted to 0.5 µg/mL (≈ 0.395 µM).

As to `CC(C)C[C@@H]1NC(=O)[C@@H](Cc2ccccc2)NC(=O)[C@H](CCN)NC(=O)[C@@H](NC(=O)[C@H](CCN)NC(=O)[C@@H](NC(=O)[C@H](N)CSSCCC2CCCCC2)[C@@H](C)O)CCNC(=O)[C@H]([C@@H](C)O)NC(=O)[C@H](CCN)NC(=O)[C@H](CCN)NC1=O` [Compound 19b] (H-[dC](S(2-cyclohexylethyl))T[Dab][Dab][Dab][dF]L[Dab][Dab]T; lactam 4-C), in series [1], the “MIC P. aeruginosa (ATCC 27853)” value was determined as 2 µg/mL (≈ 1.65 µM). Further, the “MIC K. pneumoniae (ATCC 13883)” value in series [2] was 1 µg/mL (≈ 0.827 µM). In addition, the “MIC A. baumannii (ATCC 19606)” value in series [3] was determined as 1 µg/mL (≈ 0.827 µM). Also, the “MIC E. coli (ATCC 25922)” value in the series on E. coli (ATCC 25922) amounted to 1 µg/mL (≈ 0.827 µM). Besides, the “TC50, Day 2” value in [4] is on record as 51 µM.
